{
  "source": "patent US20100305202A1",
  "about": "“LYOPHILIZED PHARMACEUTICAL COMPOSITION WITH IMPROVED STABILITY CONTAINING TAXANE DERIVATIVES, AND METHOD OF MANUFACTURING THE SAME” (priority 2007, published 2010)",
  "key": {"[1]": {"settings": "no additive; cited from earlier work"}, "[2]": {"assay": "Solubility of docetaxel in distilled water with PVP and HPBCD (Experimental Example 1)", "type": "physicochemical", "method": "The solubility of docetaxel was measured by performing liquid chromatography with UV detector (230 nm).\nThe solubility of docetaxel in distilled water proportionally increases between 10% and 30% of weight ratio (w/v %) of hydroxypropyl β-cyclodextrin (HPBCD).\nFurther, the ratio of HPBCD relative to docetaxel was at least 1:11 and the concentration of HPBCD will be lowered if the concentration unit (w/v) is converted into (mg/mL) unit. Therefore, docetaxel may be solubilized even when the ratio of docetaxel:HPBCD becomes smaller than 1:11. Therefore, according to the present invention, it is preferable to use more than 1 part by weight of hydroxypropyl β-cyclodextrin (HPBCD), and more preferably 5 parts by weight relative to 1 part by weight of the taxoid."}},
  "data": [
    {"smiles": "CC(=O)O[C@@]12CO[C@@H]1C[C@H](O)[C@@]1(C)C(=O)[C@H](O)C3=C(C)[C@@H](OC(=O)[C@H](O)[C@@H](NC(=O)OC(C)(C)C)c4ccccc4)C[C@@](O)([C@@H](OC(=O)c4ccccc4)[C@H]21)C3(C)C", "note": "[docetaxel]", "values": [
      {"measurement": "commonly known solubility of docetaxel in distilled water", "setting": "[1]", "value": 25, "unit": "ng/mL"},
      {"measurement": "better solubility with HPBCD versus distilled water", "setting": "[2]; 31.1 mg/mL versus 0.000025 mg/mL", "value": 1.2, "unit": "million"},
      {"measurement": "solubility of docetaxel added with HPBCD in distilled water", "setting": "[2]; with hydroxypropyl β-cyclodextrin (HPBCD)", "value": 31.1, "unit": "mg/mL"}
    ]}
  ]
}
